Data set [1] can be described thus: Oral bioavailability in Sprague-Dawley rat plasma at 2 mg/kg administered as gastric bolus dose by LC-MS/MS analysis. The format is ADME, organism-based.
A short description of data set [2]: Clearance in Sprague-Dawley rat plasma at 1 mg/kg, iv administered as 30 mins infusion by LC-MS/MS analysis. The format is ADME, organism-based.
Data set [3] concerns the target T1, Serine/threonine-protein kinase TNNI3K (Homo sapiens, UniProt Q59H18).
T1 sequence (Q59H18 whole entry): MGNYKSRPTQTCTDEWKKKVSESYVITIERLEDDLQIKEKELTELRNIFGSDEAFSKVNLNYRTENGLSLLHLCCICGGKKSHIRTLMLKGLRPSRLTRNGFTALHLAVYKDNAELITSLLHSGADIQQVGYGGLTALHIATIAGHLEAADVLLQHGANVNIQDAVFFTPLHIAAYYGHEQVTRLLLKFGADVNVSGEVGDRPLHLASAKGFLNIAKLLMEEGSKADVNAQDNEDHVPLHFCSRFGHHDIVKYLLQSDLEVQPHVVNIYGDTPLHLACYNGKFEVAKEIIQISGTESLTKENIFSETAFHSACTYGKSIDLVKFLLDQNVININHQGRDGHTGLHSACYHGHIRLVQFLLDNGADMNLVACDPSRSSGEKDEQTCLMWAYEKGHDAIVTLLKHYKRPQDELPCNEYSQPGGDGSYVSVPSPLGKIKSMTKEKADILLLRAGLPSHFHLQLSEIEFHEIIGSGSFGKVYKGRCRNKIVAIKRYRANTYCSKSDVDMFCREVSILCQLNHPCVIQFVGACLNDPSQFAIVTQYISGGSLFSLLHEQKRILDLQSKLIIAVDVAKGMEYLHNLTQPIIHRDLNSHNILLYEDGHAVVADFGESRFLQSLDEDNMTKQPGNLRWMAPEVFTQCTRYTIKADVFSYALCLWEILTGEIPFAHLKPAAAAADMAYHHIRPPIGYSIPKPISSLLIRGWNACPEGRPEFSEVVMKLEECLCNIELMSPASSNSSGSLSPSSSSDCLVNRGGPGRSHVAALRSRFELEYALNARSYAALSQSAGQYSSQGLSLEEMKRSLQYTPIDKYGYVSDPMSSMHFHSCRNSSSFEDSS
Put plainly: Inhibition of 5-({[2-({[3-({4-[(5-hydroxy-2-methylphenyl)amino]-2-pyrimidinyl}amino)phenyl]carbonyl}amino)-ethyl]amino}carbonyl)-2-(6-hydroxy-3-oxo-3H-xanthen-9-yl)benzoic acid binding to human full length His/MBP-fused TNNI3K expressed in baculovirus expression system after 60 mins by fluorescence polarization assay. In general terms: In fluorescence polarisation assays a small probe gives low polarisation when free and higher when bound to something large.

The next data set deals with Rattus norvegicus. Put plainly: Dose normalized AUC in Sprague-Dawley rat plasma at 2 mg/kg, po administered as gastric bolus dose by LC-MS/MS analysis. It is filed as ADME, organism-based. Particulars: in vivo.
The target of data set [4] is Epidermal growth factor receptor (Homo sapiens, UniProt P00533). Nature of the data set: Inhibition of EGFR (unknown origin).
Epidermal growth factor receptor, sequence (P00533 whole entry, the tested form may be a part): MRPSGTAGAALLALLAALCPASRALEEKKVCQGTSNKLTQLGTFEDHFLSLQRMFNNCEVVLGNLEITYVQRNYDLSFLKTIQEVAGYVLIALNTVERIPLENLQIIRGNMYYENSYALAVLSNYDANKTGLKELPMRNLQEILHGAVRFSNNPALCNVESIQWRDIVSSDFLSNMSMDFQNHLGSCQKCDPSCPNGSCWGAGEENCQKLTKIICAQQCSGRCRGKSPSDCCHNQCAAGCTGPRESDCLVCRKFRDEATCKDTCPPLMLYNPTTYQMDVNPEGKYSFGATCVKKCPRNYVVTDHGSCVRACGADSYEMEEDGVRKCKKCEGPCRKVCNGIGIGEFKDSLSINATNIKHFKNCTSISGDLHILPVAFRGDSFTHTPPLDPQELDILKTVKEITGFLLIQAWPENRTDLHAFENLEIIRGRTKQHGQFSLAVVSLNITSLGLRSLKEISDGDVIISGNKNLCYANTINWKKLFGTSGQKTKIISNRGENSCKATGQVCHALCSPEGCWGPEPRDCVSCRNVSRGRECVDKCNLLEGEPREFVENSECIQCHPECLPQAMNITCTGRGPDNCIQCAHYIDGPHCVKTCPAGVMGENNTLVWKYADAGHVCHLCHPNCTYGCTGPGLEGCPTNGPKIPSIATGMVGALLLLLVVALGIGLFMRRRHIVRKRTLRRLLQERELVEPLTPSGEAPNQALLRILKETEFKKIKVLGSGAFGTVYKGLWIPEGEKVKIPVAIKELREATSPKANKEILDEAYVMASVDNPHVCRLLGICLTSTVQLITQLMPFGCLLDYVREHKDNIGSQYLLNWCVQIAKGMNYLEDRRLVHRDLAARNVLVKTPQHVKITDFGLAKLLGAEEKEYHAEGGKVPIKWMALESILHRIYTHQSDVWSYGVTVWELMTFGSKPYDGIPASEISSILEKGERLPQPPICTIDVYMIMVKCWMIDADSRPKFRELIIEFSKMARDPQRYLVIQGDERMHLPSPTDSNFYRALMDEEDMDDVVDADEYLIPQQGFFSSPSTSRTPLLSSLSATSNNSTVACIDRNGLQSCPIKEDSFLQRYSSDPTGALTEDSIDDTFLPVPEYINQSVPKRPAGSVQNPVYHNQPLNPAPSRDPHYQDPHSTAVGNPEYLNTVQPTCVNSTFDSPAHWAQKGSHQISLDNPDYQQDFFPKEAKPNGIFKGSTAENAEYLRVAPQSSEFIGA
Data set [5] is described as follows: Selectivity index, ratio of IC50 for EGFR (unknown origin) to IC50 for human full length His/MBP-fused TNNI3K expressed in baculovirus expression system.

One may read the bioavailability as dose-corrected exposure relative to a reference, in per cent. Higher therefore signals much systemic uptake. Broadly, the clearance is a measure of how efficiently the substance is removed, as volume per time. What is called IC50 is the concentration needed to halve the response being measured. Read a high IC50 as weaker potency.

In data set [1], `CNS(=O)(=O)c1ccc(N(C)C)c(Nc2cc(Nc3ccc(Cl)cc3)ncn2)c1` came in with a bioavailability of 30%. In data set [2], the clearance was 52 mL/min/kg. The IC50 in data set [3] is 79 nM. Moreover, in the data set on Rattus norvegicus, the AUC/dose was determined as 0.096 kg·h/L.

Compound `CNS(=O)(=O)c1ccc(OCC(F)(F)F)c(Nc2cc(Nc3ccc(Cl)cc3)ncn2)c1` gave a bioavailability in data set [1] of 37%. Further, the clearance in data set [2] is 20 mL/min/kg. Moreover, the AUC/dose in the data set with Rattus norvegicus stood at 0.32 kg·h/L.

`CNS(=O)(=O)c1ccc(F)c(Nc2cc(Nc3ccc(Cl)cc3)ncn2)c1` had an AUC/dose with Rattus norvegicus of 1.1 kg·h/L.

In data set [1], `CNS(=O)(=O)c1cccc(Nc2cc(Nc3ccc(Cl)cc3)ncn2)c1` displayed a bioavailability of 100%. The same compound came in with a clearance in data set [2] of 23 mL/min/kg. The 50% inhibitory concentration (IC50) in data set [4] was 13 nM; in data set [3] it was 79 nM. The compound further came in with an AUC/dose in the data set on Rattus norvegicus of 0.71 kg·h/L.

`CNS(=O)(=O)c1ccc(Cl)c(Nc2cc(Nc3ccc(Cl)cc3)ncn2)c1` returned a bioavailability in data set [1] of 55%. In addition, the clearance in data set [2] is 14 mL/min/kg. The compound also showed an AUC/dose in the data set with Rattus norvegicus of 0.7 kg·h/L.

`CNS(=O)(=O)c1ccc(SC)c(Nc2cc(Nc3ccc(Cl)cc3)ncn2)c1` had a bioavailability in data set [1] of 52%. In data set [2], the clearance turned out to be 4.5 mL/min/kg. In the data set on Rattus norvegicus, the AUC/dose came out at 2.1 kg·h/L.

Take `CNS(=O)(=O)c1ccc(OC)c(Nc2cc(Nc3ccc(Cl)cc3)ncn2)c1`: the bioavailability in data set [1] was 100%. Further, the clearance in data set [2] amounted to 26 mL/min/kg. This compound also registered an AUC/dose with Rattus norvegicus of 0.69 kg·h/L.

In data set [3], `CNS(=O)(=O)c1cccc(Nc2ccnc(Nc3cccc(C)c3)c2)c1` registered an IC50 of 5000 nM.

In data set [1], `CNS(=O)(=O)c1cccc(Nc2cc(Nc3cccc(Cl)c3)ncn2)c1` displayed a bioavailability of 20%. In data set [2], the clearance was 52 mL/min/kg. For the same compound, in data set [3], the concentration for half-maximal inhibition (IC50) stood at 79 nM. In the data set on Rattus norvegicus, this compound showed an AUC/dose of 0.064 kg·h/L. As for `CNS(=O)(=O)c1cccc(Nc2ncnc(Nc3ccc(Cl)cc3)n2)c1`, in data set [3], the 50% inhibitory concentration (IC50) was determined as 50 nM.

`CNS(=O)(=O)c1cccc(Nc2cc(Nc3ccccc3F)ncn2)c1` had an IC50 in data set [3] of 630 nM. `CNS(=O)(=O)c1cccc(Nc2ncnc(Nc3cccc(C)c3)n2)c1` showed an IC50 in data set [3] of 20 nM.

Consider `CNS(=O)(=O)c1cccc(Nc2cc(Nc3ccccc3)ncn2)c1`, for which, in data set [3], the half-inhibitory concentration (IC50) was 63 nM. The compound `CNS(=O)(=O)c1cccc(Nc2cc(Nc3ccc(OC)cc3)ncn2)c1` returned an IC50 in data set [3] of 160 nM.

`CNS(=O)(=O)c1cccc(Nc2ccnc(Nc3cccc(C)c3)n2)c1`: the IC50 in data set [3] was determined as 630 nM. Compared with the last compound, the IC50 is about 3.9-fold higher. For `CNS(=O)(=O)c1cccc(Nc2cc(Nc3ccc(S(C)(=O)=O)cc3)ncn2)c1`, the IC50 in data set [3] amounted to 79 nM. `CNS(=O)(=O)c1cccc(Nc2cc(Nc3cccc(OC)c3)ncn2)c1` had a half-inhibitory concentration (IC50) in data set [3] of 63 nM. On to `CNS(=O)(=O)c1cccc(Nc2cc(Nc3cccc(C(C)C)c3)ncn2)c1`, for which, in data set [5], the “Ratio IC50” value came to 0.5. The IC50 in data set [4] amounted to 25 nM; in data set [3], 50 nM. The compound `CNc1cc(Nc2cccc(S(=O)(=O)NC)c2)ncn1` registered an IC50 in data set [3] of 800 nM. In data set [3], `CNS(=O)(=O)c1cccc(Nc2cc(Nc3ccccc3C)ncn2)c1` came in with an IC50 of 1300 nM. On to `CNS(=O)(=O)c1cccc(Nc2cc(Nc3cccc(Br)c3)ncn2)c1`, for which the bioavailability in data set [1] worked out at 33%. For the same compound, the clearance in data set [2] stood at 53 mL/min/kg. The compound also came in with a half-inhibitory concentration (IC50) in data set [3] of 79 nM. This compound also came in with an AUC/dose in the data set on Rattus norvegicus of 0.1 kg·h/L. Regarding `CNS(=O)(=O)c1cccc(Nc2cc(Nc3cccc(S(C)(=O)=O)c3)ncn2)c1`, the IC50 in data set [3] is 200 nM. For `CNS(=O)(=O)c1cccc(Nc2cc(Nc3ccc(C(F)(F)F)cn3)ncn2)c1`, the IC50 in data set [3] was determined as 16 nM. On the same count and under the same terms, then `CNS(=O)(=O)c1cccc(Nc2cc(Nc3ccc(C(F)(F)F)cc3)ncn2)c1`, with 79 nM; and `CNS(=O)(=O)c1cccc(Nc2cc(Nc3ccccc3OC)ncn2)c1`, with 3200 nM.

`CNS(=O)(=O)c1cccc(Nc2cc(Nc3ccc(C)cc3)ncn2)c1` registered an IC50 in data set [3] of 79 nM. Consider `CNS(=O)(=O)c1cccc(Nc2cc(Nc3cccc(S(=O)(=O)NC)c3)ncn2)c1`, for which, in data set [5], the “Ratio IC50” value is on record as 20. The IC50 in data set [4] amounted to 1600 nM; in data set [3], 79 nM.

Source of the values: ChEMBL document CHEMBL4020849, “4,6-Diaminopyrimidines as Highly Preferred Troponin I-Interacting Kinase (TNNI3K) Inhibitors” (J Med Chem, 2018).
